Laboratory results as given in patent US9688702B2, “Alpha-amino boronic acid derivatives, selective immunoproteasome inhibitors” (Ares Trading S.A, priority 2011, dated 2017).
Counter-ions that a name gives are not always drawn.

Columns and labels:
[1] = target: LMP7 (purified human immuno proteasome) (Homo sapiens, UniProt P28062); assay: Determination of LMP7 activity (fluorescence intensity assay, Suc-LLVY-AMC); format: biochemical; conditions: for IC50: 40 μM Suc-LLVY-AMC, 37° C.
In short: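 Purified human immunoproteasome (0.5 nM or 0.25 nM) preincubated 30 min at 37 °C with compounds (10 μM to 38 pM) in 50 mM Tris pH 7.4, 0.03% SDS. Suc-LLVY-AMC added at 40 μM; after 90 min at 37 °C, fluorescence read at ex 350/em 450 nm.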

[2] = target: Beta5 (purified human constitutive proteasome) (Homo sapiens, UniProt P28074); assay: Determination of Beta5 activity (fluorescence intensity assay, Suc-LLVY-AMC); format: biochemical; conditions: purified human constitutive proteasome 1.0 nM, 40 μM Suc-LLVY-AMC, 37° C.
In short: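 Purified human constitutive proteasome (1.0 nM) was preincubated 30 min at 37 °C with compounds (10 μM to 38 pM) in 50 mM Tris pH 7.4, 0.03% SDS. Suc-LLVY-AMC (40 μM) was then added and fluorescence (ex 350/em 450 nm) read after 90 min at 37 °C.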

[3] = purified human immuno proteasome 0.5 nM
[4] = purified human immuno proteasome 0.25 nM (examples 79, 80, 83, 84, 85, 87, 88, 89, 90, 91, 93, 94, 96, 97, 101 and 110)

SMILES | Selectivity LMP7 vs Beta5 [1] | IC50 [1, 3] | IC50 [2] | IC50 [1, 4]
CCOc1cccc(C[C@H](NC(=O)CCc2noc(-c3ccccc3)n2)B(O)O)c1 [Example 68, (R)-(2-(3-ethoxyphenyl)-1-(3-(5-phenyl-1,2,4-oxadiazol-3-yl)propanamido)ethyl)boronic acid] | +++ (+++: Selectivity > 30) | < 50 nM | 500 to 5000 nM | 
CCc1cccc(C[C@H](NC(=O)[C@H](CC(=O)c2ccccc2)c2cccc(Cl)c2)B(O)O)c1 (single isomer, unassigned) [Example 14] | +++ (+++: Selectivity > 30) | 50 to 500 nM | 500 to 5000 nM | 
COc1ccc(C(=O)CC(Cc2ccccc2)C(=O)N[C@@H](Cc2cc(F)cc(OC)c2)B(O)O)cc1 (stereo partly drawn) [Example 49, ((1R)-1-(2-benzyl-4-(4-methoxyphenyl)-4-oxobutanamido)-2-(3-fluoro-5-methoxyphenyl)ethyl)boronic acid] | ++ (++: 10 < Selectivity < 30) | < 50 nM | 50 to 500 nM | 
O=C(CCn1cc(-c2ccccc2)nn1)N[C@@H](Cc1coc2ccccc12)B(O)O [Example 89, (R)-(2-(benzofuran-3-yl)-1-(3-(4-phenyl-1H-1,2,3-triazol-1-yl)propanamido)ethyl)boronic acid] | ++ (++: 10 < Selectivity < 30) |  | < 50 nM | < 50 nM
CCc1cccc(C[C@H](NC(=O)CCn2cc(-c3ccccc3)nn2)B(O)O)c1 [Example 52, (R)-(2-(3-ethylphenyl)-1-(3-(4-phenyl-1H-1,2,3-triazol-1-yl)propanamido)ethyl)boronic acid] | +++ (+++: Selectivity > 30) | < 50 nM | 50 to 500 nM | 
CCc1cccc(C[C@H](NC(=O)CCn2cc(-c3ccc(OC)cc3)nn2)B(O)O)c1 [Example 75, (R)-(2-(3-ethylphenyl)-1-(3-(4-(4-methoxyphenyl)-1H-1,2,3-triazol-1-yl)propanamido)ethyl)boronic acid] | +++ (+++: Selectivity > 30) | < 50 nM | 50 to 500 nM | 
O=C(CCc1ccncc1)N[C@@H](Cc1coc2ccccc12)B(O)O [Example 93, (R)-(2-(benzofuran-3-yl)-1-(3-(pyridin-4-yl)propanamido)ethyl)boronic acid hydrochloride] | ++ (++: 10 < Selectivity < 30) |  | < 50 nM | < 50 nM
COc1cc(C[C@H](NC(=O)CCn2cnc3ccccc32)B(O)O)ccc1F [Example 69, (R)-(1-(3-(1H-benzo[d]imidazol-1-yl)propanamido)-2-(4-fluoro-3-methoxyphenyl)ethyl)boronic acid] | + (+: Selectivity < 10) | 50 to 500 nM | 500 to 5000 nM | 
CCc1cccc(C[C@H](NC(=O)CCn2c(=O)sc3ccccc32)B(O)O)c1 [Example 30, ((1R)-2-(3-ethylphenyl)-1-{[3-(2-oxo-1,3-benzothiazol-3(2H)-yl)propanoyl]amino}ethyl)boronic acid] | ++ (++: 10 < Selectivity < 30) | < 50 nM | 50 to 500 nM | 
O=C(Cc1cnc[nH]1)N[C@@H](Cc1coc2ccccc12)B(O)O [Example 83, (R)-(1-(2-(1H-imidazol-5-yl)acetamido)-2-(benzofuran-3-yl)ethyl) boronic acid hydrochloride] | ++ (++: 10 < Selectivity < 30) |  | 50 to 500 nM | < 50 nM
O=C(CCc1cccc(F)c1)N[C@@H](Cc1coc2ccccc12)B(O)O [Example 85, (R)-(2-(benzofuran-3-yl)-1-(3-(3-fluorophenyl)propanamido)ethyl) boronic acid] | +++ (+++: Selectivity > 30) |  | < 50 nM | < 50 nM
O=C(CCN1CCNCC1)N[C@@H](Cc1coc2ccccc12)B(O)O [Example 92, (R)-(2-(benzofuran-3-yl)-1-(3-(piperazin-1-yl)propanamido)ethyl) boronic acid hydrochloride] | +++ (+++: Selectivity > 30) | < 50 nM | 50 to 500 nM | 
